Data set [1] concerns the target T1, P-gp Q132A mutant (Homo sapiens, UniProt P08183, Q132A). The settings on record: alanine mutants (Q132A, Q773A) vs wild type, rhodamine123 efflux inhibition.
Data set [2] addresses T2, P-gp Q132R mutant (Homo sapiens, UniProt P08183, Q132R). The settings on record: rhodamine123 efflux inhibition.
Another data set addresses wild-type P-gp (Homo sapiens, UniProt P08183). Briefly: cell-based.
The target of data set [3] is T1, P-gp Q132A mutant. Briefly: cell-based.
In data set [4] the target is T3, P-gp Q773A mutant (Homo sapiens, UniProt P08183, Q773A). Briefly: cell-based.
A further data set has as its target P-gp Q132A/Q773A mutant (Homo sapiens, UniProt P08183, Q132A/Q773A). As to the kind of experiment: cell-based.
For data set [5], the target named is T2, P-gp Q132R mutant. As to the kind of experiment: cell-based.
Data set [6] has as its target T4, P-gp Q773R mutant (Homo sapiens, UniProt P08183, Q773R). As to the kind of experiment: cell-based. The settings on record: IC50 for rhodamine123 efflux inhibition, HEK-293/EBNA cells.
For data set [7], the target named is T2, P-gp Q132R mutant. As to the kind of experiment: Rhodamine123 efflux. The settings on record: slope of first-order rate constant vs P-gp surface expression (MRK16). Type of data set: cell-based.
Data set [8] has as its target T4, P-gp Q773R mutant. As to the kind of experiment: Rhodamine123 efflux. Type of data set: cell-based. The settings on record: slope of first-order rate constant vs P-gp surface expression (MRK16).
Data set [9] has as its target P-gp Q132R/Q773R double mutant (Homo sapiens, UniProt P08183, Q132R/Q773R). As to the kind of experiment: Rhodamine123 efflux. Conditions: protein expressed at the cell surface. It is filed as cell-based.
Data set [10] deals with T1, P-gp Q132A mutant. As to the kind of experiment: Rhodamine123 efflux. It is filed as cell-based. Conditions: Q132A vs wild type.
In data set [11] the target is T3, P-gp Q773A mutant. As to the kind of experiment: Rhodamine123 efflux. The settings on record: Q773A vs wild type. It is filed as cell-based.

“Also recorded” adds a separate entry of the source.

T1 sequence (P08183 whole entry Q132A): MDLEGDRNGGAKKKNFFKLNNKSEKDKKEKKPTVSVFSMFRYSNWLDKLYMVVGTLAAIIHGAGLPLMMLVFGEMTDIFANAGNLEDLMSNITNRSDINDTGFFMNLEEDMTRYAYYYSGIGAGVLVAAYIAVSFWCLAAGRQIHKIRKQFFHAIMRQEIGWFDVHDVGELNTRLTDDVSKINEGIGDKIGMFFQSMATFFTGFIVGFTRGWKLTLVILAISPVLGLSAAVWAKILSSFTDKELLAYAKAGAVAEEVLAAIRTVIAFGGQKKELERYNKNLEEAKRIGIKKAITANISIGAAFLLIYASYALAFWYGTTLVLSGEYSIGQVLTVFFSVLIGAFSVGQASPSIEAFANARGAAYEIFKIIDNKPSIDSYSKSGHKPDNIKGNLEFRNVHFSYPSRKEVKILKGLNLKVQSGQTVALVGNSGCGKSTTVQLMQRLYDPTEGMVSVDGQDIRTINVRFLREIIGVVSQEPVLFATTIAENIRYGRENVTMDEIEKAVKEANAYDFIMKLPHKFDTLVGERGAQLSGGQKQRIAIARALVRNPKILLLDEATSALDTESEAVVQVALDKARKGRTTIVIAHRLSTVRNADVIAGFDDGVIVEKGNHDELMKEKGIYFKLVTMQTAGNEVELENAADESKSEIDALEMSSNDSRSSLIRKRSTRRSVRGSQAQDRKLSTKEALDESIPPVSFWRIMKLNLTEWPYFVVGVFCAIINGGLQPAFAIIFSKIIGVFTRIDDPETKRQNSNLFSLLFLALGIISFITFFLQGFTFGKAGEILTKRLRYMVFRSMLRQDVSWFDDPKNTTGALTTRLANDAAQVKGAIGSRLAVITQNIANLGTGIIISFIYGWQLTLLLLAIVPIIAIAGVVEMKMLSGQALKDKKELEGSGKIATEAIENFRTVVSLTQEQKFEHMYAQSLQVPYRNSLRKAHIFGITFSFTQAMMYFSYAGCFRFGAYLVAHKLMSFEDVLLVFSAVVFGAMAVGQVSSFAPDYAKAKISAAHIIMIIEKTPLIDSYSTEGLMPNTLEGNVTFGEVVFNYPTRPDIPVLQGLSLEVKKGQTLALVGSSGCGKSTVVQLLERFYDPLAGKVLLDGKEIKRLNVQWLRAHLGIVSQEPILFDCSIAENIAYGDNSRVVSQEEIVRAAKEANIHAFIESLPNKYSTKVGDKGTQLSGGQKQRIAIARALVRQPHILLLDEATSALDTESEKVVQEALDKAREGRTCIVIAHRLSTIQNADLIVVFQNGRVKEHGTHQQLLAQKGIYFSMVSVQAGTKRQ
T3 sequence (P08183 whole entry Q773A): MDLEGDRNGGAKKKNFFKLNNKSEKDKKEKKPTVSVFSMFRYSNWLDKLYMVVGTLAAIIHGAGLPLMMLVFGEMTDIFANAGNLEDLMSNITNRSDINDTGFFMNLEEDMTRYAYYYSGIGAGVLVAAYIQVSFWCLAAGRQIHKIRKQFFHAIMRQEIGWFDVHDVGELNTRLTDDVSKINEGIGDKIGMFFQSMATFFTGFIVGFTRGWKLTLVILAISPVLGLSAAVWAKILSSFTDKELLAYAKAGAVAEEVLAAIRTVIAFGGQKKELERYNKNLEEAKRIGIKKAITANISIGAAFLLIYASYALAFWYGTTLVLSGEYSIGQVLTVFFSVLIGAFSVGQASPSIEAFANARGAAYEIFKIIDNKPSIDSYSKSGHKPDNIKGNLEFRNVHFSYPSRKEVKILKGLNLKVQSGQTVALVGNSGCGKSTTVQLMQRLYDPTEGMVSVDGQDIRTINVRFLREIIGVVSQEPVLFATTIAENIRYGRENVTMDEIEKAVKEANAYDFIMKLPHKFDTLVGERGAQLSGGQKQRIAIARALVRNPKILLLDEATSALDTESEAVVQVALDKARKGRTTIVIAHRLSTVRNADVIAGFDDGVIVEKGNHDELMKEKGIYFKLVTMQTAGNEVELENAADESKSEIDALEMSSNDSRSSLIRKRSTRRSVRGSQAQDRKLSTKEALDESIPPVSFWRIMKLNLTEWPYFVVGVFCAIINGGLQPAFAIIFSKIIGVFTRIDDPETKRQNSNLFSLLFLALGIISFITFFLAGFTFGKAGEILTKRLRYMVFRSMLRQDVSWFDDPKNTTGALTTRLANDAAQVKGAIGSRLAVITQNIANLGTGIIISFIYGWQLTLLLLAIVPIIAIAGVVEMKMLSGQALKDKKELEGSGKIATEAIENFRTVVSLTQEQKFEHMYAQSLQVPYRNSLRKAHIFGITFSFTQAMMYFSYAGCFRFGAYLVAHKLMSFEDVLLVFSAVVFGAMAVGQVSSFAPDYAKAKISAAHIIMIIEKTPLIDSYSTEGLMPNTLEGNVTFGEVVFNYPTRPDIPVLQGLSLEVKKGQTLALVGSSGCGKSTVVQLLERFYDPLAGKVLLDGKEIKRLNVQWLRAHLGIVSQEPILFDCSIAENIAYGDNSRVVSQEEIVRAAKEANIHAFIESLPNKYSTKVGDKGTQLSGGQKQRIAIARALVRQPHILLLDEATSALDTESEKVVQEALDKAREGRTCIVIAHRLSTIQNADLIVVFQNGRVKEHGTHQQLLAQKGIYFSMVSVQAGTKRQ
T4 sequence (P08183 whole entry Q773R): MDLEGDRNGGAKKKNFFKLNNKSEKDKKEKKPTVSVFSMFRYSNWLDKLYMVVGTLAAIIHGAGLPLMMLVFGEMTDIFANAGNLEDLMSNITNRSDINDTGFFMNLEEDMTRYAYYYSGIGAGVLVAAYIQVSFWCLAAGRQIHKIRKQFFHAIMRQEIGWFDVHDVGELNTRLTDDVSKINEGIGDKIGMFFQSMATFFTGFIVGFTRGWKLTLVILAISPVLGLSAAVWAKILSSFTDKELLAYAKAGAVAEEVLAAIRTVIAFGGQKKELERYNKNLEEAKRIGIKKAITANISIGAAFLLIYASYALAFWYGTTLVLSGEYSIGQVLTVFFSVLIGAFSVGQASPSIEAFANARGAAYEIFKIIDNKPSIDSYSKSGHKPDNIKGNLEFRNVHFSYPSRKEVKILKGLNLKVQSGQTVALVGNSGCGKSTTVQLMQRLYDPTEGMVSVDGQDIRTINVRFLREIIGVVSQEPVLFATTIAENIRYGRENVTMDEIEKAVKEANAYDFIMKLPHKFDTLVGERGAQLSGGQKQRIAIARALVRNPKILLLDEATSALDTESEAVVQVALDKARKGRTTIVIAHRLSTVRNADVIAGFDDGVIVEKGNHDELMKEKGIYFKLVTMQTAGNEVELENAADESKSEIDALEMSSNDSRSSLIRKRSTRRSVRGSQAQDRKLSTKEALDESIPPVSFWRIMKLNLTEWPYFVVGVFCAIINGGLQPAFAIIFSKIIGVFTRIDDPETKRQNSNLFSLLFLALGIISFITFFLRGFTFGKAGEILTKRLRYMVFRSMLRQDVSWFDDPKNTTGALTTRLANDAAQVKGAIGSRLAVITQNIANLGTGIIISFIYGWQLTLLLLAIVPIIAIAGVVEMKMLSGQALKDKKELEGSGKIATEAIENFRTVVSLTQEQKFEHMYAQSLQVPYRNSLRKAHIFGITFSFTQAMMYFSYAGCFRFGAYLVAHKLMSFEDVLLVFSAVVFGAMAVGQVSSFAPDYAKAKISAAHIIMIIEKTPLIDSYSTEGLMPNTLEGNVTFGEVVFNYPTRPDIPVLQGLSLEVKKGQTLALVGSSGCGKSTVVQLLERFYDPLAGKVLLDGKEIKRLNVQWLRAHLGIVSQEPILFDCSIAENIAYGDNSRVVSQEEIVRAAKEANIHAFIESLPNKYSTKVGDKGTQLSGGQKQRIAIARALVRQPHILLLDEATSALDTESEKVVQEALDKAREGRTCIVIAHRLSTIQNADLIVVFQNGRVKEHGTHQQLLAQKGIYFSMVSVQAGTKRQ
T2 sequence (P08183 whole entry Q132R): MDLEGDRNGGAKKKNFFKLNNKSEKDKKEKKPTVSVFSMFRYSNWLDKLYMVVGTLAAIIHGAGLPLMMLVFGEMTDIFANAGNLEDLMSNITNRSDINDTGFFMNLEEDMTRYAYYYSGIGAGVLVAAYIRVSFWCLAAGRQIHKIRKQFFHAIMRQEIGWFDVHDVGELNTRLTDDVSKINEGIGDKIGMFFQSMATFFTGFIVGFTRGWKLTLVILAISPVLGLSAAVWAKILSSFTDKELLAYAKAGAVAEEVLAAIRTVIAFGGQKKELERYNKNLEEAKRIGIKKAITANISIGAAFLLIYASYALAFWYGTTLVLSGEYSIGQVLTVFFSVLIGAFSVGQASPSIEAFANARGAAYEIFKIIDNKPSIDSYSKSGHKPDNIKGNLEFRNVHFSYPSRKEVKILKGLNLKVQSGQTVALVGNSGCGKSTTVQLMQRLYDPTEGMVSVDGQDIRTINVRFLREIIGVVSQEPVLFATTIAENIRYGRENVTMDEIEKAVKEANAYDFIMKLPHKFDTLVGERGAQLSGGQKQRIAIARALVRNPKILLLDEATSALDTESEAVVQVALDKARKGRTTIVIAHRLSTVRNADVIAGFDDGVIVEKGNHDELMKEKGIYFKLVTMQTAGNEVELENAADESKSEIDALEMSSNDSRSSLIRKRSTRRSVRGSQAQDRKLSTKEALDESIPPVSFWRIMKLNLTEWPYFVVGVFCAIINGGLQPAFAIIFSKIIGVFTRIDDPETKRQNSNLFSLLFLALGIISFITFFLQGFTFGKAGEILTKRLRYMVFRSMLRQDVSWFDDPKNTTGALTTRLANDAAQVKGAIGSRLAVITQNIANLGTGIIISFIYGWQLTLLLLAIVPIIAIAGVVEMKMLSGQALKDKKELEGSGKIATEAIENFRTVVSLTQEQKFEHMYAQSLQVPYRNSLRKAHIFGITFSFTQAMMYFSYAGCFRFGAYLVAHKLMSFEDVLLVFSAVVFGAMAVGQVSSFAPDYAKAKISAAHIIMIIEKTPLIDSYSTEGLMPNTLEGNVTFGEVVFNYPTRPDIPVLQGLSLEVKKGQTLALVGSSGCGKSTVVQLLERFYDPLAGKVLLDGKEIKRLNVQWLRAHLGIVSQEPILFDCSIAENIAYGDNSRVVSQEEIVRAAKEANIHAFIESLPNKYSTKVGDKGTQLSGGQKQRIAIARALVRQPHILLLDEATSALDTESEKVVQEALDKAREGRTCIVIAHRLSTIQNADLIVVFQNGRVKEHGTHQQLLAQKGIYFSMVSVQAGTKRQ

For orientation: IC50 means the midpoint of a concentration-inhibition curve. The low end stands for higher potency, the high end for lower potency. As for `O=C(CCc1ccccc1)c1ccccc1OCC(O)CN1CCN(c2ccc(F)cc2)CC1` (stereo not drawn) [GPV31, 1-(2-(3-(4-(4-fluorophenyl)piperazin-1-yl)-2-hydroxypropoxy)phenyl)-3-phenylpropan-1-one], the “Change of IC50 values on mutation of glutamine residues to alanine” value on P-gp Q132A mutant [1] is recorded as “did not change”. Further, the “Fold difference in IC50 values between the two Arg mutants” value on P-gp Q132R mutant [2] (Q132R vs Q773R) was 36 fold. Also, the “Fold higher IC50 in Q132R than in wild-type P-gp” value on P-gp Q132R mutant [2] (Q132R vs wild-type) is listed as about 7 fold. Besides, the IC50 was 0.11 ± 0.06 µM against wild-type P-gp; 0.1 ± 0.03 µM on P-gp Q132A mutant [3]; 0.11 ± 0.05 µM on P-gp Q773A mutant [4]; 0.12 ± 0.01 µM on P-gp Q132A/Q773A mutant; 0.71 ± 0.46 µM on P-gp Q132R mutant [5]; 0.02 ± 0.01 µM against P-gp Q773R mutant [6].

`CCCN(CC(O)COc1ccccc1C(=O)CCc1ccccc1)C(=O)c1ccccc1` (stereo not drawn) [GPV366, N-(2-hydroxy-3-(2-(3-phenylpropanoyl)phenoxy)-propyl)-N-propylbenzamide]: the “Change of IC50 values on mutation of glutamine residues to alanine” value at P-gp Q132A mutant [1] is “did not change”. In addition, the IC50 amounted to 2.6 ± 0.69 µM against wild-type P-gp; 2.57 ± 0.69 µM against P-gp Q132A mutant [3]; 2.4 ± 1.47 µM against P-gp Q773A mutant [4]; 2.87 ± 0.63 µM on P-gp Q132A/Q773A mutant; 2.64 ± 0.59 µM against P-gp Q132R mutant [5]; 2.09 ± 0.9 µM against P-gp Q773R mutant [6].

With `COC(=O)c1ccccc1-c1c2ccc(=N)cc-2oc2cc(N)ccc12` [rhodamine123], the “Rhodamine123 transport rate relative to wild-type” value at P-gp Q132R mutant [7] was 52 ± 13 % of wild-type; at P-gp Q773R mutant [8], 24 ± 6 % of wild-type. The Rhodamine123 transport activity result in [9] was “complete loss of transport activity”. Further, the “Effect of mutation on rhodamine123 transport” value at P-gp Q132A mutant [10] and on P-gp Q773A mutant [11] was “did not affect; also recorded: comparable with wild-type” throughout.

(Values after publication PMC6422312 (Molecular pharmacology, 2010).)
